Square brackets hold non-standard residues; d marks the D form. Ends that are not written are not given here. Peptide text beside a SMILES is read from it. NMeY = CN[C@@H](Cc1ccc(O)cc1)C(=O)O; NMeF = CN[C@@H](Cc1ccccc1)C(=O)O; Nle = CCCC[C@H](N)C(=O)O
Tests used:
[1] = system: cells of rat pituitary glands; test: in vitro GH release assay in cultured rat pituitary cells, side-by-side with hpGRF(1-40)-OH standard; format: cell-based; details: for Comparison % (GH release relative to hpGRF(1-40)-OH standard): equimolar concentrations, incubation 3 to 4 hours, immunoreactive GH in culture medium by radioimmunoassay, hpGRF(1-40)-OH = 100%
Procedure: To determine the effectiveness of the various synthetic peptides to promote the release of growth hormone, in vitro assays are carried out using synthetic hpGRF(1-40)--OH as a standard in side-by-side comparison with equimolar concentrations of the various other analogs and fragments synthesized. Cultures are used which include cells of rat pituitary glands removed some three to five days previously. Cultures which are considered optimal for the secretion of growth hormone are used for the comparative testing, in the general manner described in Vale et al. Endocrinology , 91, 562-572 (1972) and as more particularly described in Vale et al. Endocrinology, (1983), in press. Incubation with the substance to be tested is carried out for 3 to 4 hours, and aliquots of the culture medium are removed and processed to measure their contents in immunoreactive GH(ir GH) by a well-characterized radioimmunoassay.

[2] = system: secretion of pituitary GH; test: in vivo GH secretion in freely running normal male rats pretreated with FLA-63; set-up: species or system rat; details: injection through indwelling catheter, blood samples prior to and 5 and 20 minutes after injection
Procedure: In addition to the in vitro tests for secretion of growth hormone, in vivo experiments inject the synthetic peptides through an indwelling catheter into freely running normal male rats after pretreating them with FLA-63, a dopamine hydroxylase inhibitor that suppresses spontaneous GH secretion without affecting the response to exogenous GRF. Blood samples are taken through the same catheter immediately prior to and 5 and 20 minutes after injections. […] Dosages between about 100 nanograms and about 50 micrograms per Kg. of body weight are considered to be effective in causing secretion.

Compound	Comparison % (GH release relative to hpGRF(1-40)-OH standard) [1] [%]	maximum effective concentration ([1]; in vitro, rat pituitary cell cultures) [nM]	duration of GH-releasing action compared with hpGRF(1-32)-NH2 [2]	stimulation of secretion of pituitary GH (GH levels in blood) ([2]; radioimmunoassay)
CC[C@H](C)[C@H](NC(=O)[C@H](C)NC(=O)[C@H](CC(=O)O)NC(=O)[C@H](C)NC(=O)[C@H](Cc1ccccc1)NC)C(=O)N[C@@H](Cc1ccccc1)C(=O)N[C@H](C(=O)N[C@@H](CC(N)=O)C(=O)N[C@@H](CO)C(=O)N[C@@H](Cc1ccc(O)cc1)C(=O)N[C@@H](CCCNC(=N)N)C(=O)N[C@@H](CCCCN)C(=O)N[C@H](C(=O)N[C@@H](CC(C)C)C(=O)NCC(=O)N[C@@H](CCC(N)=O)C(=O)N[C@@H](CC(C)C)C(=O)N[C@@H](CO)C(=O)N[C@@H](C)C(=O)N[C@@H](CCCNC(=N)N)C(=O)N[C@@H](CCCCN)C(=O)N[C@@H](CC(C)C)C(=O)N[C@@H](CC(C)C)C(=O)N[C@@H](CCC(N)=O)C(=O)N[C@@H](CC(=O)O)C(=O)N[C@H](C(=O)N[C@@H](CCSC)C(=O)N[C@@H](CO)C(=O)N[C@@H](CCCNC(=N)N)C(=O)N[C@@H](CCC(N)=O)C(=O)N[C@@H](CCC(N)=O)C(=O)NCC(N)=O)[C@@H](C)CC)C(C)C)[C@@H](C)O [[N^a MePhe^1]-hpGRF(1-32)-NH2] (H-[NMeF]ADAIFTNSYRKVLGQLSARKLLQDIMSRQQG-NH2)	12	5 to 10	substantially longer duration that hpGRF(1-32)-NH2	powerful stimulators of the secretion of pituitary GH
CCCC[C@H](NC(=O)[C@@H](NC(=O)[C@H](CCC(=O)O)NC(=O)[C@H](Cc1c[nH]cn1)NC(=O)[C@H](CC(C)C)NC(=O)[C@H](CC(C)C)NC(=O)[C@H](CCCCN)NC(=O)[C@H](CCCNC(=N)N)NC(=O)[C@H](C)NC(=O)[C@H](Cc1ccc(O)cc1)NC(=O)[C@H](CC(C)C)NC(=O)[C@H](CCC(N)=O)NC(=O)CNC(=O)[C@H](CC(C)C)NC(=O)[C@@H](NC(=O)[C@H](CCCNC(=N)N)NC(=O)[C@H](CCCNC(=N)N)NC(=O)[C@H](Cc1ccc(O)cc1)NC(=O)[C@H](CO)NC(=O)[C@H](CO)NC(=O)[C@@H](NC(=O)[C@H](Cc1ccccc1)NC(=O)[C@@H](NC(=O)[C@H](C)NC(=O)[C@H](CC(=O)O)NC(=O)[C@H](C)NC(=O)[C@H](Cc1ccc(O)cc1)NC)[C@@H](C)CC)[C@@H](C)O)[C@@H](C)CC)[C@@H](C)CC)C(=O)N[C@@H](CC(N)=O)C(=O)N[C@@H](CCCNC(=N)N)C(N)=O [[N^a MeTyr^1, Nle^27]-rhGRF(1-29)-NH2, H-N^a MeTyr-Ala-Asp-Ala-Ile-Phe-Thr-Ser-Ser-Tyr-Arg-Arg-Ile-Leu-Gly-Gln-Leu-Tyr- Ala-Arg-Lys-Leu-Leu-His-Glu-Ile-Nle-Asn-Arg-NH2] (H-[NMeY]ADAIFTSSYRRILGQLYARKLLHEI[Nle]NR-NH2)	1130	–	–	–
CC[C@H](C)[C@H](NC(=O)[C@H](C)NC(=O)[C@H](CC(=O)O)NC(=O)[C@H](C)NC(=O)[C@H](Cc1ccc(O)cc1)NC)C(=O)N[C@@H](Cc1ccccc1)C(=O)N[C@H](C(=O)N[C@@H](CC(N)=O)C(=O)N[C@@H](CO)C(=O)N[C@@H](Cc1ccc(O)cc1)C(=O)N[C@@H](CCCNC(=N)N)C(=O)N[C@@H](CCCCN)C(=O)N[C@H](C(=O)N[C@@H](CC(C)C)C(=O)NCC(=O)N[C@@H](CCC(N)=O)C(=O)N[C@@H](CC(C)C)C(=O)N[C@@H](CO)C(=O)N[C@@H](C)C(=O)N[C@@H](CCCNC(=N)N)C(=O)N[C@@H](CCCCN)C(=O)N[C@@H](CC(C)C)C(=O)N[C@@H](CC(C)C)C(=O)N[C@@H](CCC(N)=O)C(=O)N[C@@H](CC(=O)O)C(=O)N[C@H](C(=O)N[C@@H](CCSC)C(=O)N[C@@H](CO)C(=O)N[C@@H](CCCNC(=N)N)C(=O)N[C@@H](CCC(N)=O)C(=O)N[C@@H](CCC(N)=O)C(=O)NCC(N)=O)[C@@H](C)CC)C(C)C)[C@@H](C)O [[N^a MeTyr^1]hpGRF(1-32)-NH2, H-N^a MeTyr-Ala-Asp-Ala-Ile-Phe-Thr-Asn-Ser-Tyr-Arg-Lys-Val-Leu-Gly-Gln-Leu-Ser- Ala-Arg-Lys-Leu-Leu-Gln-Asp-Ile-Met-Ser-Arg-Gln-Gln-Gly-NH2]	184	–	–	–
H-C^a MePhe(4Cl)-Ala-Asp-Ala-Ile-Phe-Thr-Asn-Ser-Tyr-Arg-Lys-Val-Leu-Gly-Gln-Leu-Ser-Ala-Arg-Lys-Leu-Leu-Gln-Asp-Ile-Met-Ser-Arg-Gln-Gln-Gly-NH2 [[C^a Me/4Cl-Phe^1]-hpGRF(1-32)-NH2]	5	–	–	–
hpGRF(1-40)-OH (YADAIFTNSYRKVLGQLSARKLLQDIMSRQQGESNQERGA-OH; UniProt P01286 32-71, looked up, fragment) [synthetic human pancreas GH releasing factor fragment used as standard in the in vitro assay, reference compound]	100	–	–	–

— US4626523A, “GRF analogs II” (The Salk Institute for Biological Studies, priority 1985, dated 1986)
